Source: patent US20030082101A1, “Accelerators for increasing the rate of formation of free radicals and reactive oxygen species” (Cavalier Discovery, priority 2001, published 2003)

Columns and labels:
Assay type in all cases: biochemical
[1] = system: ferritin; assay: Release of iron from ferritin assay, additives, ultrasound (Example 10); details: 0.2 mg/mL ferritin, pH 7, 15 min
Description: (§1) The following example uses the release of iron from ferritin assay to show the effect of additives on the release of iron from ferritin during ultrasound exposure. All solutions were prepared in pH 7 acetic acid solution containing approximately 0.2 mg/mL ferritin and 1 mM ferrozine, and the concentration of 1,4-quinone indicated in the table below. Solutions were sonicated at 30 W, 2 MHz, 32-34 degrees Celsius for fifteen minutes using a PZT-8 1.8 cm diameter custom transducer. The sonicated solution was placed on an orbit shaker rotating at 25 RPM to ensure even sonication of the solution while the transducer was held stationary. Control solutions were placed in a controlled temperature bath at 32-34 degrees Celsius without sonication. After 15 minutes of treatment, an aliquot was tested for the presence of the iron-ferrozine chelate via absorbance at 562 nm. The amount of iron released was determined using the control solution corrected absorbance (subtract the absorbance of the control solution from the absorbance of the ultrasound solution). The corrected absorbance was compared to a ferrozine-iron standard curve to determine the enhanced iron release due to ultrasound exposure. The enhanced iron release due to ultrasound exposure in the presence of the additive was compared to the amount of enhanced iron release due to ultrasound exposure in the absence of any additives as follows: [formula]

[2] = system: ferritin; assay: Release of iron from ferritin assay, naphthoquinones, ultrasound (Example 8); details: iron release vs ultrasound without additive, 0.2 mg/mL ferritin, pH 7, 15 min
Description: as §1, with “of naphthoquinones” for “of additives”, “of naphthoquinone” for “of 1,4-quinone”, “the amount of” for “the enhanced”, “iron released.” for “iron release due to ultrasound exposure.”, “the naphthoquinone” for “the additive”

[3] = system: deoxyribose; assay: TBARS assay, existing sonodynamic agents with a metal, ultrasound (Example 13); details: 0.025 mM ferrous iron, 0.025 mM ferric iron
Description: (§2) All solutions were prepared in pH 7.5 phosphate buffer containing approximately 2 mM deoxyribose, 0.01% hydrogen peroxide, 0.025 mM ferrous iron, 0.025 mM ferric iron, and the additives indicated in the table below. Solutions were sonicated at 30 W, 2 MHz, 32-34 degrees Celsius for ten minutes using a PZT-8 1.8 cm diameter custom transducer. The sonicated solution was placed on an orbit shaker rotating at 25 RPM to ensure even sonication of the solution while the transducer was held stationary. Control solutions were placed in a controlled temperature bath at 32-34 degrees Celsius without sonication. After 10 minutes of treatment, 1 mL test solution was placed in a test tube followed by 2 mL of 1% 2-thiobarbituric acid and 2 mL of 2.8% trichloroacetic acid. The test tube was sealed and heated to 90 degrees Celsius for 30 minutes and allowed to cool to room temperature for 20 minutes. The absorbance at 532 nm was measured. The enhanced radical production during ultrasound exposure was determined by comparing the amount of deoxyribose degradation that occurs in the sonicated solution versus the control solution using the following equation: [formula]

[4] = system: ferritin; assay: Release of iron from ferritin assay, anthraquinones, ultrasound (Example 9); details: 0.2 mg/mL ferritin, pH 7.5, 15 min
Description: All solutions are prepared in pH 7.5 phosphate buffer containing approximately 0.2 mg/mL ferritin and 1 mM ferrozine, and the concentration of anthraquinone indicated in the table below. Solutions are sonicated at 30 W, 2 MHz, 32-34 degrees Celsius for fifteen minutes using a PZT-8 1.8 cm diameter custom transducer. The sonicated solution is placed on an orbit shaker rotating at 25 RPM to ensure even sonication of the solution while the transducer is held stationary. Control solutions are placed in a controlled temperature bath at 32-34 degrees Celsius without sonication. After 15 minutes of treatment, an aliquot is tested for the presence of the iron-ferrozine chelate via absorbance at 562 nm. The amount of iron released is determined using the control solution corrected absorbance (subtract the absorbance of the control solution from the absorbance of the ultrasound solution). The corrected absorbance is compared to a ferrozine-iron standard curve to determine the amount of iron released.

[5] = Free radical production when exposed to ultrasound and a metal (statements in the description); details: when exposed to ultrasound and a metal
[6] = system: deoxyribose; assay: TBARS assay, metals that enhance radical production during ultrasound (Example 6)
Description: as §2, with “The following example uses the thiobarbituric acid-reactive substances (TBARS) assay to identify metals that enhance radical production during ultrasound. All” for “All”, “peroxide,” for “peroxide, 0.025 mM ferrous iron, 0.025 mM ferric iron,”

[7] = system: deoxyribose; assay: TBARS assay, additives with ferrous iron/EDTA, ultrasound (Example 11); details: 0.075 mM additive; 0.05 mM ferrous iron, 0.075 mM EDTA
Description: as §2, with “The following example uses the thiobarbituric acid-reactive substances (TBARS) assay to identify metals that enhance radical production during ultrasound. All” for “All”, “are” for “were”, “0.05” for “0.025”, “iron added as FeSO4 hydrate, 0.075” for “iron, 0.025”, “EDTA,” for “ferric iron,”, “is” for “was”

[8] = system: deoxyribose; assay: TBARS assay, existing sonodynamic agents with a metal, ultrasound (Example 14); details: 0.025 mM ferrous iron, 0.025 mM ferric iron
Description: as §2, with “are” for “were”, “is” for “was”

Compound: O=C1C=CC(=O)C=C1 [1,4 benzoquinone]
- % Ultrasound Mediated Activity ([1]; concentration not given): 0%

Compound: O=C1C=CC(=O)c2c(O)ccc(O)c21 [5,8 dihydroxy-1,4-naphthoquinone]
- % Ultrasound Mediated Activity ([2]; 106 uM additive): 185%

Compound: O=C1C=CC(=O)c2c(O)cccc21 [5-hydroxy-1,4-naphthoquinone (juglone), 5-hydroxy-1,4-naphthoquinone]
- % Ultrasound Mediated Activity ([2]; 10 uM additive): 93%

Compound: CC1=CC(=O)c2c(O)cccc2C1=O [5-hydroxy-2-methyl-1,4-naphthoquinone]
- % Ultrasound Mediated Activity ([2]; 71 uM additive): 155%

Compound: COc1cccc2c1C(=O)c1c(O)c3c(c(O)c1C2=O)C[C@@](O)(C(=O)CO)C[C@@H]3O[C@H]1C[C@H](N)[C@H](O)[C@H](C)O1 [Adriamycin]
- % Ultrasound Mediated Activity vs Control ([3]; 0.029 mM additive): 29%

Compound: O=C1c2ccccc2C(=O)c2c1cc(S(=O)(=O)O)c(O)c2O [Alizarin Red S, 3,4-dihydroxy-9,10-dioxo-2-anthracenesulfonic acid]
- % Ultrasound Mediated Activity ([4]; 0.05 mM additive): >50%

Compound: O=C1c2ccccc2C(=O)c2cc(S(=O)(=O)O)ccc21 [Anthraquinone-2-sulfonic acid]
- % Ultrasound Mediated Activity ([4]; concentration not given): <10%

Compound: N[C@@H](CS)C(=O)O [CYSTEINE]
- free radical production [5]: increase free radical production
- % Ultrasound Mediated Activity ([1]; 0.45 mM additive): 160%

Compound: Cc1cc(O)c2c(c1)C(=O)c1cccc(O)c1C2=O [Chrysophanol, 1,8-dihydroxy-3-methylanthraquinone]
- % Ultrasound Mediated Activity ([4]; 0.05 mM additive): >50%

Compound: [Cl][Cu][Cl] [Cupric chloride]
- % Ultrasound Mediated Activity vs Control ([6]; cupric chloride 0.026 mM): 82%

Compound: O=C(O)/C(O)=C(\O)C(=O)O [DIHYDROXYFUMARATE]
- % Ultrasound Mediated Activity ([1]; 0.01 mM additive): 72%

Compound: Cc1cc(O)c2c(c1)C(=O)c1cc(O)cc(O)c1C2=O [Emodin, 6-methyl-1,3,8-trihydroxyanthraquinone]
- % Ultrasound Mediated Activity ([4]; 0.05 mM additive): >50%

Compound: [Cl][Fe]([Cl])[Cl] [Ferric iron added as FeCl3, FeCl3]
- % Ultrasound Mediated Activity vs Control ([6]; ferric iron approx 0.1 mM): 76%

Compound: O=S(=O)([O-])[O-].O=S(=O)([O-])[O-].[Fe+2].[NH4+].[NH4+] [Ferrous iron added as Fe(NH4)2(SO4)2, Fe(NH4)2(SO4)2]
- % Ultrasound Mediated Activity vs Control ([6]; ferrous iron 0.1 mM): 12%

Compound: O=c1c(O)c(-c2cc(O)c(O)c(O)c2)oc2cc(O)cc(O)c12 [Myricetin]
- % Ultrasound Mediated Activity vs Control [7]: >100%

Compound: CC(C)(S)[C@@H](N)C(=O)O [PENICILLAMINE]
- free radical production [5]: increase free radical production
- % Ultrasound Mediated Activity ([1]; 0.11 mM additive): 117%

Compound: O=c1c(O)c(-c2ccc(O)c(O)c2)oc2cc(O)cc(O)c12 [Quercetin]
- % Ultrasound Mediated Activity vs Control [7]: >100%

Compound: O=C(O)c1cc(O)c2c(c1)C(=O)c1cccc(O)c1C2=O [Rhein, 9,10-dihydro-4,5-dihydroxy-9,10-dioxo-2-anthracenecarboxylic acid]
- % Ultrasound Mediated Activity ([4]; 0.05 mM additive): >50%

Compound: O=C([O-])c1c(Cl)c(Cl)c(Cl)c(Cl)c1-c1c2cc(I)c(=O)c(I)c-2oc2c(I)c([O-])c(I)cc12.[Na+].[Na+] [Rose Bengal]
- % Ultrasound Mediated Activity vs Control ([3]; 0.028 mM additive): 28%

Compound: O=C1C(O)=C(O)C(=O)C(O)=C1O [Tetrahydroxy 1,4-benzoquinone]
- % Ultrasound Mediated Activity ([1]; 0.11 mM additive): 186%

Compound: Ferritin
- % Ultrasound Mediated Activity vs Control ([6]; ferritin approx. 0.2 mg/mL): 6%

Compound: Hypocrellin A
- % Ultrasound Mediated Activity vs Control ([8]; 0.025 mM additive): >30%

Compound: Iron(III) phthalocyanine-4,4′,4″,4″′-tetrasulfonic acid
- % Ultrasound Mediated Activity vs Control ([8]; 0.025 uM additive): >30%
